Patent publication US20220315574A1, “Beta-Arrestin-Modulating Compounds and Methods of Using Same” (Duke University, priority 2019, published 2022)
Structures can show the parent of a compound that is named as a salt.

Legend:
βarr2 = βarr2 (Rattus norvegicus, UniProt P29067); assay: Binding affinity (Kd) by ITC / thermal shift; design: made in house; settings: Cmpd-30 by ITC; other three by combination of ITC and thermal shift; read-out: Kd (dissociation constant), βarr2
Method: A high-throughput differential scanning fluorimetry-based thermal shift screen was developed to identify potential βarr small-molecule modulators present in the collection of structurally diverse, drug-like small-molecule compound library described above. The screen was performed using the StepOnePlus™ Real-Time PCR System (Applied Biosystems, Foster City, Calif.). Melting temperature changes were monitored with the use of a reporter fluorescent probe, SYPRO Orange (Thermo Fisher Scientific). Proteins were buffered in a 20 mM HEPES pH 7.5, 100 mM NaCl solution. All reactions were set up in a 96-well plate at final volumes of 20 μl. Small-molecule test compounds were plated from DMSO stock solutions into 96 well plates (1 compound/well) at a final compound concentration of 100 μM. The final DMSO concentration per well was 1%. βarr1 or βarr2 final concentration was maintained at 5 μM per well. Vehicle (DMSO), negative, and positive controls were also included in each plate. Negative controls contained SYPRO Orange in buffer by itself (no βarr protein). Three known βarr binders were individually tested under described assay conditions: ‘V2Rpp’, a phosphorylated peptide corresponding to the C-terminus of the vasopressin-2 receptor (V2R); Fab30, an antigen-binding fragment that recognizes V2Rpp bound active βarr conformation; and inositol hexakisphosphate (IP6). […]. […] The temperature was raised with a step of 0.5° C. per 30 second from 25° C. to 99° C. and fluorescence readings were taken at each interval. Melting curves were directly exported from the instrument and were analyzed using Applied Biosystems® Protein Thermal Shift™ Software. Melting temperature (Tm) was calculated by plotting the first derivative of the fluorescence emission as a function of temperature [−dF/dT]. […]
ITC measurements were made using the MicroCal iTC200 system (MicroCal, Malvern, Pa.). […] Data were analyzed using MicroCal Origin software program to obtain association constant (Ka=1/Kd), stoichiometry (N), and thermodynamic parameters such as enthalpy (ΔH) and entropy (ΔS) of binding.

ERK1/2 = assay: Live cell ERK1/2 activation assay (HEK293 cells stably expressing β2AR); format: cell-based; settings: for βarr1/2-dependent ERK activation through β2-adrenergic receptor: carvedilol stimulation after compound pretreatment
Method: To assess the effect(s) of βarr small-molecule modulators on receptor-stimulated β-arr dependent ERK1/2 activation, HEK293 cells stably expressing β2AR plates were starved for 6 hours in serum-free medium prior to stimulation (Wisler, J. W. et al. A unique mechanism of beta-blocker action: carvedilol stimulates beta-arrestin signaling. Proc Natl Acad Sci USA 104, 16657-16662, doi:10.1073/pnas.0707936104 (2007); Wang, J. et al. Galphai is required for carvedilol-induced beta1 adrenergic receptor beta-arrestin biased signaling. Nat Commun 8, 1706, doi:10.1038/s41467-017-01855-z (2017)). Cells were pretreated with βarr small-molecule modulators or vehicle, then incubated for 30 min at 37° C. After stimulation with appropriate receptor ligand (carvedilol or isoproterenol) for indicated time points, reactions were terminated by the addition of Laemmli sample buffer. The cell lysates were sonicated for 15 sec (2×) and clarified by centrifugation 14,000×g (4° C., 15 min). Proteins were resolved on an SDS-PAGE gel, transferred to nitrocellulose membranes, and immunoblotted using rabbit polyclonal anti-phospho-p44/42 MAPK (ERK1/2) antibody (1:2000; Cell Signaling), anti-MAPK1/2 (ERK1/2) antibody (1:10,000; Millipore-Sigma), anti-β-arrestin1 antibody (A1CT; 1:3000) or anti-β-arrestin2 antibody (A1CT; 1:3000, Lefkowitz lab, Duke University). Protein bands on the membrane were detected with SuperSignal West Pico enhanced chemiluminescent substrate (Thermo Fisher) and captured using a ChemiDoc-XRS charge-coupled device camera system (Bio-Rad Laboratories). Bands were quantified by densitometry using Image Lab (Bio-Rad, Hercules, Calif.) and GraphPad Prism software was used for data analyses.
For experiments involving siRNA transfection and knockdown βarrs, after stimulation cells were lysed in ice-cold 1% NP-40 lysis buffer [20 mM tris-HCl (pH 7.4), 137 mM NaCl, 20% glycerol, 1% NP-40, 2 mM sodium orthovanadate, 1 mM phenylmethylsulfonyl fluoride, 10 mM sodium fluoride, aprotinin (10 μg/ml), leupeptin (5 μg/ml), and phosphatase inhibitors (Phos-STOP; Roche)], rotated for 45 min, and cleared of insoluble debris by centrifugation at 14,000×g (4° C., 15 min). After which the supernatant was collected, protein concentration determined, and equal amounts of cell lysate were mixed with 2×Laemmli sample buffer. Samples were analyzed afterwards essentially as described above.

β2AR = assay: FRET-based cAMP accumulation (ICUE2 HEK293 cells), receptor desensitization; format: cell-based; settings: ICUE cells pretreated with inhibitor
Method: The Epac2 (ICUE2) sensor contains a CFP and YFP FRET pair. HEK293 cells stably expressing the ICUE2 cells were plated in poly-D-lysine-coated black 96 well plates (Corning) at a cell density of 50,000 cells per well. 16 hours after plating, cells were PBS-washed, then incubated in HEPES-buffered saline solution (150 mM NaCl, 5 mM KCl, 1 mM MgCl2, 2 mM CaCl2, 10 mM glucose, and 10 mM HEPES, pH 7.4) for one hour.

Chain of βarr2 (P29067 whole entry): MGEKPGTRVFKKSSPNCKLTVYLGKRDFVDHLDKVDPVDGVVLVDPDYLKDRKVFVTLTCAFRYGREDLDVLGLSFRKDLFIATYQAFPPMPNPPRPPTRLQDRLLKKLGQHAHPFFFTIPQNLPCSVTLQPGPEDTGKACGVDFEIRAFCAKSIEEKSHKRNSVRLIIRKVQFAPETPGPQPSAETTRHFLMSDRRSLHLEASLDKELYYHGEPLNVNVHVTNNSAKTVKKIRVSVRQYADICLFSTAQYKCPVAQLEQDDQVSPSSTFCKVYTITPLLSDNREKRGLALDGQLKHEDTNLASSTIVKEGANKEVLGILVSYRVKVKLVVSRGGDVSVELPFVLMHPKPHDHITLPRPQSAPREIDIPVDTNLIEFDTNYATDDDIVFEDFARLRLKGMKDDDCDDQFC

| EC50 (ERK1/2; Homo sapiens, HEK293, βarr-dependent but receptor-independent) | SMILES | Kd (βarr2) | βarr1/2-dependent ERK activation through β2-adrenergic receptor (ERK1/2) | isoproterenol-stimulated cAMP accumulation vs untreated control cells (β2AR) | basal phosphorylation of ERK1/2 (ERK1/2; compound alone, absent of agonist) | time of peak ERK activation signal (ERK1/2; compound alone, decline observed at 30 minutes) | compound-induced ERK1/2 phosphorylation after knockdown of βarr1/2 (ERK1/2; βarr1/2 siRNA vs control siRNA) |
| --- | --- | --- | --- | --- | --- | --- | --- |
| – | C=C1C(=O)C23[C@H](O)C1CC[C@H]2[C@]12COC3(O)[C@@H](O)[C@@H]1C(C)(C)CC[C@@H]2O [Cmpd-5, (1R,2S,10S,11R,15S,18R)-9,10,15,18-tetrahydroxy-12,12-dimethyl-6-methylidene-17-oxapentacyclo[7.6.2.15,8.01,11.02,8]octadecan-7-one] | 261 nM | attenuate | increased cAMP accumulation | – | – | – |
| 500 nM | CN(C)c1n/c(=N/Cc2ccco2)ss1 [Cmpd-30, 5-(furan-2-ylmethylimino)-N,N-dimethyl-1,2,4-dithiazol-3-amine;hydrobromide] | 2 nM | – | increased cAMP accumulation | increased | 15 to 20 min | markedly impaired |
| – | C=C1C(=O)OC2CC3(C)OC3CC/C(C)=C\C(OC(C)=O)C12 (stereo not drawn) [Cmpd-64, [(8Z)-3,8-dimethyl-12-methylidene-13-oxo-4,14-dioxatricyclo[9.3.0.03,5]tetradec-8-en-10-yl] acetate] | 104 nM | attenuate | increased cAMP accumulation | – | – | – |
